What follows are molecules tested against T1, human PDE2A1 (Homo sapiens, UniProt O00408) (assay: IMAP FP PDE assay, human PDE2A1). Conditions: Lab B; read-out: Human PDE2 Ki (nM) Lab B.
T1 construct: GST; purchased BPS Bioscience (San Diego, Calif.) 60020; host or cells: insect cells
Assay type: biochemical
Protocol: Selectivity for PDE2, as compared to other PDE families, was assessed using the IMAP® technology. Human PDE10A2 enzyme was prepared from cytosolic fractions of transiently transfected HEK cells. All other PDE's were GST Tag human enzyme expressed in insect cells and were obtained from BPS Bioscience (San Diego, Calif.): PDE1A (Cat#60010), human PDE2A1 (Cat#60020), PDE3A (Cat#60030), PDE4A1A (Cat#60040), PDE5A1 (Cat#60050), PDE6C (Cat#60060), PDE7A (Cat#60070), PDE8A1 (Cat#60080), PDE9A2 (Cat#60090), PDE11A4 (Cat#60110).
Assays for PDE 1 through 11 were performed in parallel at room temperature in 384-well microtiter plates with an incubation volume of 20.2 μL. Solutions of test compounds were prepared in DMSO and serially diluted with DMSO to yield 30 μL of each of ten solutions differing by 3-fold in concentration, at 32 serial dilutions per plate. […] A Labcyte POD 810 (Labcyte, Sunnyvale, Calif.) was used to dispense 200 nL from each well of the titration plate to make eleven copies of the assay plate for each titration, one copy for each PDE enzyme. A solution of each enzyme (dilution from aliquots, sufficient to produce 20% substrate conversion) and a separate solution of FAM-labeled cAMP or FAM-labeled cGMP from Molecular Devices (Sunnyvale, Calif., product # R7506 or cGMP#R7508), at a final concentration of 50 nM were made in the assay buffer (10 mM Tris HCl, pH 7.2, 10 mM MgCl2, 0.05% NaN3 0.01% Tween-20, and 1 mM DTT). Note that the substrate for PDE2 is 50 nM FAM cAMP containing 1000 nM of cGMP. The enzyme and the substrate were then added to the assay plates in two consecutive additions of 10 μL and then shaken to mix. The reaction was allowed to proceed at room temperature for 60 minutes. A binding solution was then made from the kit components, comprised of 80% Solution A, 20% Solution B and binding reagent at a volume of 1/600 the total binding solution. The enzymatic reaction was stopped by addition of 60 μL of the binding solution to each well of the assay plate. The plates were sealed and shaken for 10 seconds. The plates were incubated at room temperature for one hour, then the parallel and perpendicular fluorescence was measured using a Tecan Genios Pro plate reader (Tecan, Switzerland). The apparent inhibition constants for the compounds against all 11 PDE's was determined from the parallel and perpendicular fluorescent readings as described for PDE10 FP assay using the following apparent KM values for each enzyme and substrate combination: PDE1A (FAM cGMP) 70 nM, human PDE2A1 (FAM cAMP) 10,000 nM, PDE3A (FAM cAMP) 50 nM, PDE4A1A (FAM cAMP) 1500 nM, PDE5A1 (FAM cGMP) 400 nM, PDE6C (FAM cGMP) 700 nM, PDE7A (FAM cAMP) 150 nM, PDE8A1 (FAM cAMP) 50 nM, PDE9A2 (FAM cGMP) 60 nM, PDE10A2 (FAM cAMP) 150 nM, PDE11A4 (FAM cAMP) 1000 nM. The intrinsic PDE2 inhibitory activity of a compound which may be used in accordance with the present invention may be determined by these assays.

T1 sequence (O00408 1-920 isoform O00408-2): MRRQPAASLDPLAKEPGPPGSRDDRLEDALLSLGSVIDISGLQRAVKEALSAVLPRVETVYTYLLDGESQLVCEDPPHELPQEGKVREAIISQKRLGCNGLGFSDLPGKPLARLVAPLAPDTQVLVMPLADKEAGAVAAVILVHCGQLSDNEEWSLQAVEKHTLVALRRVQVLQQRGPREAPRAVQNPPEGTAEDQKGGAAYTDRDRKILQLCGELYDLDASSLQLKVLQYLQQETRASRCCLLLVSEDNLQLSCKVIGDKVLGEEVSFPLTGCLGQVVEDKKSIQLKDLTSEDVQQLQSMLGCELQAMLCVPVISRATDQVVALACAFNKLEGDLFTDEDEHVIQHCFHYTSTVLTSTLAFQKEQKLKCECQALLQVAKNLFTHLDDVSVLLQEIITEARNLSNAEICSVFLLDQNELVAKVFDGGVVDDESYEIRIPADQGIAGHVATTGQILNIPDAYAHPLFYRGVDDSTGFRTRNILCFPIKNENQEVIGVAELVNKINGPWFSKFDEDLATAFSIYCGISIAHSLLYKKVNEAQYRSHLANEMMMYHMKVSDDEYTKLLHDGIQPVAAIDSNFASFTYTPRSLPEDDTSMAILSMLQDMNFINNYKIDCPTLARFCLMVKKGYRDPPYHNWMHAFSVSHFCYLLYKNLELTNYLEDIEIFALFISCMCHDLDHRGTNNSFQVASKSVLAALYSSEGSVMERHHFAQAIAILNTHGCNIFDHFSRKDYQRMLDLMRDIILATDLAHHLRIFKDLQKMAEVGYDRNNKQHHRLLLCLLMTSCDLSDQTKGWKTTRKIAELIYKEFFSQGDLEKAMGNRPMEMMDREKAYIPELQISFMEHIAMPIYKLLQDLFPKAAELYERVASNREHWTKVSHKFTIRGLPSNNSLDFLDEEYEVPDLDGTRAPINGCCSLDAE

Row | Structure (SMILES) | Ki
1 | Cc1nc2c(c(CO)nn2C(C)c2ccc(C(F)(F)F)cc2C)c(=O)[nH]1 (single isomer, unassigned) [Example 108, (R)- or (S)-3-(Hydroxymethyl)-6-methyl-1-(1-(2-methyl-4-(trifluoromethyl)phenyl)ethyl)-1H-pyrazolo[3,4-d]pyrimidin-4(5H)-one] | ~1280 nM
2 | Cc1nc2c(c(C(F)F)nn2C(C)c2ccc(C(F)(F)F)cc2Cl)c(=O)[nH]1 (single isomer, unassigned) [Example 184, (S)- or (R)-1-(1-(2-Chloro-4-(trifluoro-methyl)phenyl)-ethyl)-3-(difluoromethyl)-6-methyl-1H-pyrazolo[3,4-d]pyrimidin-4(5H)-one] | 1.6 nM
3 | CCc1nc2c(c(C(F)F)nn2C(C)c2ccc(C(F)(F)F)cc2)c(=O)[nH]1 (single isomer, unassigned) [Example 190, (S)- or (R)-3-(Difluoromethyl)-6-ethyl-1-(1-(4-(trifluoromethyl)-phenyl)ethyl)-1,5-dihydro-4H-pyrazolo[3,4-d]pyrimidin-4-one] | 2.7 nM
4 | Cc1nc2c(c(CO)nn2C(C)c2ncn(CC(F)(F)F)n2)c(=O)[nH]1 (single isomer, unassigned) [Example 148] | 671 nM
5 | Cc1nc2c(c(CO)nn2C(C)c2c(F)cc(C(F)(F)F)cc2F)c(=O)[nH]1 (single isomer, unassigned) [Example 137] | 121 nM
6 | Cc1nc2c(c(CC(F)(F)F)nn2C(C)c2ccc(C(F)(F)F)cc2)c(=O)[nH]1 (single isomer, unassigned) [Example 65, (S)- or (R)-6-Methyl-3-(2,2,2-trifluoroethyl)-1-(1-(4-(trifluoromethyl)phenyl)ethyl)-1H-pyrazolo[3,4-d]pyrimidin-4(5H)-one] | 5 nM
7 | Cc1nc2c(c(CO)nn2C(C)c2ccc(C(F)(F)F)cc2F)c(=O)[nH]1 (single isomer, unassigned) [Example 16, (R)- or (S)-1-(1-(2-Fluoro-4-(trifluoromethyl)phenyl)ethyl)-3-(hydroxymethyl)-6-methyl-1H-pyrazolo[3,4-d]pyrimidin-4(5H)-one] | 81 nM
8 | Cc1nc2c(c(CO)nn2C(C)c2ccc(OC(F)F)cc2)c(=O)[nH]1 (single isomer, unassigned) [Example 20, (R)- or (S)-1-(1-(4-(Difluoromethoxy)phenyl)ethyl)-3-(hydroxymethyl)-6-methyl-1H-pyrazolo[3,4-d]pyrimidin-4(5H)-one] | 305 nM
9 | Cc1nc2c(c(C(F)F)nn2C(C)c2ccc(S(F)(F)(F)(F)F)cc2)c(=O)[nH]1 (single isomer, unassigned) [Example 162] | 1.8 nM
10 | Cc1nc2c(c(C(N)=O)nn2C(C)c2ccc(C(F)(F)F)cc2)c(=O)[nH]1 (single isomer, unassigned) [Example 256] | 86 nM
11 | CCC(c1ccc(OC(F)(F)F)cc1)n1nc(CO)c2c(=O)[nH]c(C)nc21 (single isomer, unassigned) [Example 135, (S)- or (R)-3-(Hydroxymethyl)-6-methyl-1-(1-(4-(trifluoro-methoxy)phenyl)propyl)-1H-pyrazolo[3,4-d]pyrimidin-4(5H)-one] | 1 nM
12 | CC(c1ccc(C(F)(F)F)cc1)n1nc(-c2nnco2)c2c(=O)[nH]c(CC3CC3)nc21 (single isomer, unassigned) [Example 341, (S)- or (R)-6-(Cyclopropylmethyl)-3-(1,3,4-oxadiazol-2-yl)-1-(1-(4-(trifluoromethyl)phenyl)ethyl)-1,5-dihydro-4H-pyrazolo[3,4-d] pyrimidin-4-one] | 191 nM
13 | Cc1nc2c(c(N)nn2C(C)c2ccc(C(F)(F)F)cc2)c(=O)[nH]1 (stereo not shown) [Example 258, 3-Amino-6-methyl-1-(1-(4-(trifluoromethyl)phenyl)ethyl)-H-pyrazolo[3,4-d]pyrimidin-4(5H)-one] | 42 nM
14 | Cc1nc2c(c(CO)nn2C(C)c2ccc(C(F)(F)F)cn2)c(=O)[nH]1 (single isomer, unassigned) [Example 151, (R)- or (S)-3-(Hydroxymethyl)-6-methyl-1-(1-(5-(trifluoromethyl)pyridin-2-yl)ethyl)-1H-pyrazolo[3,4-d]pyrimidin-4(5H)-one] | 25 nM
15 | COCc1nc2c(c(CO)nn2C(C)c2ccc(S(F)(F)(F)(F)F)cc2)c(=O)[nH]1 (single isomer, unassigned) [Example 318, (S)- or (R)-3-(Hydroxymethyl)-6-(methoxymethyl)-1-{1-[4-(pentafluorosulfanyl)phenyl]ethyl}-1,5-dihydro-4H-pyrazolo[3,4-d]pyrimidin-4-one] | 3.8 nM

Results, then the molecule that gave them:

Row | Ki | Structure (SMILES)
16 | 8.6 nM | Cc1nc2c(c(C(F)(F)F)nn2C(C)c2ccc(C(F)(F)F)cc2)c(=O)[nH]1 (single isomer, unassigned) [Example 68, (R)- or (S)-6-Methyl-3-(trifluoromethyl)-1-(1-(4-(trifluoromethyl)phenyl)ethyl)-1H-pyrazolo[3,4-d]pyrimidin-4(5H)-one]
17 | 72 nM | Cc1nc2c(c(CC(C)O)nn2C(C)c2ccc(C(F)(F)F)cc2)c(=O)[nH]1 (single isomer, unassigned) [Example 246]
18 | 2.5 nM | CC(c1ccc(C(F)(F)F)cc1)n1nc(-c2nnco2)c2c(=O)[nH]c(CC3CCCC3)nc21 (single isomer, unassigned) [Example 342, (R) or (S)-6-(Cyclopentylmethyl)-3-(1,3,4-oxadiazol-2-yl)-1-(1-(4-(trifluoromethyl)phenyl)ethyl)-1,5-dihydro-4H-pyrazolo[3,4-d] pyrimidin-4-one]
19 | 66 nM | CCC(c1ccc(C(F)(F)F)cc1)n1nc(CO)c2c(=O)[nH]c(C)nc21 (single isomer, unassigned) [Example 133, (S)- or (R)-3-(Hydroxymethyl)-6-methyl-1-(1-(4-(trifluoro-methyl)phenyl)propyl)-1H-pyrazolo[3,4-d]pyrimidin-4(5H)-one]
20 | 263 nM | CCCc1nc2c(c(CO)nn2C(C)c2ccc(C(F)(F)F)cc2)c(=O)[nH]1 (single isomer, unassigned) [Example 304, (S)- or (R)-3-(Hydroxymethyl)-6-propyl-1-(1-(4-(trifluoromethyl)phenyl)ethyl)-1,5-dihydro-4H-pyrazolo[3,4-d]pyrimidin-4-one]
21 | 330 nM | CCc1nc2c(c(C(F)F)nn2C(C)c2ccc(C(F)(F)F)cc2)c(=O)[nH]1 (single isomer, unassigned) [Example 189, (R)- or (S)-3-(Difluoromethyl)-6-ethyl-1-(1-(4-(trifluoromethyl)phenyl)ethyl)-1,5-dihydro-4H-pyrazolo[3,4-d]pyrimidin-4-one]
22 | 465 nM | Cc1nc2c(c(Br)nn2C(C)c2ccc(C(F)(F)F)cc2)c(=O)[nH]1 (single isomer, unassigned) [Example 324]
23 | 1210 nM | Cc1nc2c(c(CO)nn2C(C)c2ccc3c(c2)OC(F)(F)O3)c(=O)[nH]1 (single isomer, unassigned) [Example 114, (R)- or (S)-1-(1-(2,2-Difluorobenzo[d][1,3]dioxol-5-yl)ethyl)-3-(hydroxymethyl)-6-methyl-1H-pyrazolo[3,4-d]pyrimidin-4(5H)-one]
24 | 570 nM | Cc1nc2c(c(C3CCCO3)nn2C(C)c2ccc(C(F)(F)F)cc2)c(=O)[nH]1 (single isomer, unassigned) [Example 72, (S, R)- or (S, S)- or (R, S)- or (R, R)-6-Methyl-3-(-tetrahydrofuran-(trifluoromethyl)phenyl)ethyl)-1H-pyrazolo[3,4-d]pyrimidin-4(5H)-one]
25 | 386 nM | Cc1nc2c(c(CC(C)O)nn2C(C)c2ccc(C(F)(F)F)cc2)c(=O)[nH]1 (single isomer, unassigned) [Example 244]

Reference: patent US10160762B2, “6-alkyl dihydropyrazolopyrimidinone compounds as PDE2 inhibitors” (Merck Sharp & Dohme Corp., priority 2015, dated 2018)
